Our source for the IC50 values is ChEMBL document CHEMBL1128030, “Synthesis and biological evaluation of a library containing potentially 1600 amides / esters. A strategy for rapid compound generation and screening” (Bioorg Med Chem Lett, 1994).

One experiment addresses T1, Neuromedin-K receptor (Homo sapiens, UniProt P29371).
T1 sequence (P29371 whole entry): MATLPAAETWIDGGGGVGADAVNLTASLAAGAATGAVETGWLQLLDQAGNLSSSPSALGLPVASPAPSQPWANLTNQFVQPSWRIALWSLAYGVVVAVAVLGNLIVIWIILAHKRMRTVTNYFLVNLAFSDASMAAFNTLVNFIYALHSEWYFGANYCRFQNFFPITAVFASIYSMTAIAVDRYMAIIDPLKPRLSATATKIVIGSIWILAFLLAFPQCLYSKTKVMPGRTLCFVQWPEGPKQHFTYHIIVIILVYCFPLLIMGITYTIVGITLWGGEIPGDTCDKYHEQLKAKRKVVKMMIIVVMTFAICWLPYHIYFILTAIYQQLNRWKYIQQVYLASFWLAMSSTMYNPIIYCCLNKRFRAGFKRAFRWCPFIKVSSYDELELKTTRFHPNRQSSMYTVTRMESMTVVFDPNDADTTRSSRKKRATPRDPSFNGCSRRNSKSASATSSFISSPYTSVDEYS
The experiment is described as follows: Compound was tested for its ability to displace [3H]senktide binding to human Tachykinin receptor 3 expressed in CHO cells. Format: cell-based.

Another experiment addresses T2, Interstitial collagenase (Homo sapiens, UniProt P03956).
T2 sequence (P03956 whole entry): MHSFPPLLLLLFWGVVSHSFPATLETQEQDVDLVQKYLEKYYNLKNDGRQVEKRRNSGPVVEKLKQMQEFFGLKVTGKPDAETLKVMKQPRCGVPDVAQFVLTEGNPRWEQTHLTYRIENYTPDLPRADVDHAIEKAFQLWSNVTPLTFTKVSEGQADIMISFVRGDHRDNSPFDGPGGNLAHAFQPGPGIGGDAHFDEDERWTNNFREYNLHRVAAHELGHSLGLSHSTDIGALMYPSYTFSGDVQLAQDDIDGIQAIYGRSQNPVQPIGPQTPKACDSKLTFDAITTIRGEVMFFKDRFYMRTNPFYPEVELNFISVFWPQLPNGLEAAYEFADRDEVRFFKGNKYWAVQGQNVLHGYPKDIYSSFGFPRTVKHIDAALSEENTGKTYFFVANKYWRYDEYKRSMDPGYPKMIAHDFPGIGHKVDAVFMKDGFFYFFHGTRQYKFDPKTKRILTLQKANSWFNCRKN
Briefly: Inhibition of human recombinant MMP-I.

In the case of `O=C(/C=C/c1ccccc1)N1CCN(C(c2ccccc2)c2ccc(Cl)cc2)CC1` (configuration not stated), the IC50 (in general, the concentration at which inhibition is half-maximal) at Neuromedin-K receptor amounted to 60 µM.

As to `N#Cc1ccc(C(=O)Nc2ccccc2N2CCCCC2)cc1`, the concentration for half-maximal inhibition (IC50) at Interstitial collagenase came to 55 µM.
